In patent US8148070B2, “Genetic polymorphisms associated with coronary events and drug response, methods of detection and uses thereof” (Celera Corporation, priority 2007, dated 2012):

System: CARE patients
Assay: CARE trial: pravastatin vs placebo, recurrent MI in subgroups defined by KIF6 (and neighbouring SNP) genotype
Type: in vivo, human
Conditions: for HR, Unadjusted (recurrent MI, pravastatin vs placebo): placebo = ref; for OR for minor hom / OR for carrier (Min + Het) / OR for Het / OR for major hom: risk of recurrent MI
Excerpt: In order to identify genetic markers associated with CHD (particularly MI, including recurrent MI) or the effect of statin treatment on CHD, samples were genotyped in two clinical trials: the Cholesterol and Recurrent Events (CARE) study (a randomized multicentral double-blinded trial on secondary prevention of MI with pravastatin (Pravachol®); Sacks et al., Am. J. Cardiol. 68: 1436-1446 [1991]), and the West of Scotland Coronary Prevention Study (WOSCOPS) study (a randomized multicentral double-blinded trial on primary prevention of CHD with pravastatin (Pravachol®); Shepherd et al., N Eng J Med 333 (20), pp. 1301-7, Nov. 16, 1995; Packard et al., N Eng J Med 343 (16), pp. 1148-55, Oct. 19, 2000).
A well-documented MI was one of the enrollment criteria for entry into the CARE study. Patients were enrolled in the CARE trial from 80 participating study centers. […] Patients were randomized to receive either 40 mg of pravastatin once daily or a matching placebo. The primary endpoint of the trial was death from CHD or nonfatal MI and the median duration of follow-up was 5.0 years (range, 4.0 to 6.2 years). For this genetic study of CARE, a composite endpoint comprised of fatal or nonfatal recurrent MI was used.
For genotyping SNPs in CARE patient samples, DNA was extracted from blood samples using conventional DNA extraction methods such as the QIAamp kit from Qiagen. Genotypes were obtained by a method similar to that described by Iannone (M. A. Iannone et al., Cytometry 39(2):131-140 [Feb. 1, 2000]; also described in section “SNP DETECTION REAGENTS,” supra). Briefly, target DNA was amplified by multiplex PCR, the amplified product was submitted to a multiplex oligo ligation assay (OLA), the specific ligated products were hybridized to unique universal “ZIP code” oligomer sequences covalently attached to Luminex xMAP® Multi-Analyte COOH Microspheres, and these hybridization products/microspheres were detected in a rapid automated multiplex system (Luminex 100 instrument).
In analyzing the CARE patients, statistical analysis was performed with SAS version 9. Cox proportional hazard models (Wald tests) were used in CARE to assess the association of genotype with both the risk of incident MI in the placebo arm and the effect of pravastatin on MI compared to placebo in subgroups defined by genotypes. In analyzing the WOSCOPS patients, a conditional logistic regression model was used in WOSCOPS given that the controls had been previously matched to the cases. The column entitled “On-trial MI” lists the number of patients who suffered a recurrent MI during the clinical trial period.
HR stands for Hazard Ratio, which is a concept similar to Odds Ratio (OR). The HR in event-free survival analysis is the effect of an explanatory variable on the hazard or risk of an event. For examples, it describes the likelihood of developing MI based on comparison of rate of coronary events between carriers of the certain allele and noncarriers; therefore, HR=1.5 would mean that carriers of the certain allele have 50% higher risk of coronary events during the study follow up than non-carriers. HR can also describe the effect of statin therapy on coronary events based on comparison of rate of coronary events between patient treated with statin and patient treated with placebo (or other statin) in subgroups defined by SNP genotype; therefore, HR=0.5 would mean that, for example, carriers of the certain allele, had 50% reduction of coronary events by statin therapy as compared to placebo. In Table 6, p interaction values were calculated. An interaction (or effect modification) is formed when a third variable modifies the relation between an exposure and outcome. […] Genotype and drug interaction is present when the effect of statins (incidence rate of disease in statin-treated group, as compared to placebo) differs in patients with different genotypes. The hCV3054799 risk allele predicted risk of MI in CARE and was associated with odds of CHD in WOSCOPS. […]

## CC[C@H](C)C(=O)O[C@H]1C[C@H](O)C=C2C=C[C@H](C)[C@H](CC[C@@H](O)C[C@@H](O)CC(=O)O)[C@H]21 [Pravastatin, pravastatin]
AA (noncarriers), adjusted for conventional risk factors
  HR, Adjusted (recurrent MI, pravastatin vs placebo): 0.80
AA, of 554 patients in the pravastatin arm
  On-trial MI: 39 number of patients
GG + GA (719Arg carriers), adjusted for age, smoking, hypertension, diabetes, BMI, LDL-C, HDL-C
  HR, Adjusted (recurrent MI, pravastatin vs placebo): 0.63
GG + GA, of 810 patients in the pravastatin arm
  On-trial MI: 64 number of patients
KIF6 Trp719Arg AA (noncarriers)
  HR, Unadjusted (recurrent MI, pravastatin vs placebo): 0.86
KIF6 Trp719Arg GG + GA (719Arg carriers), 40 mg pravastatin once daily
  HR, Unadjusted (recurrent MI, pravastatin vs placebo): 0.63
Carriers of the 719Arg risk allele, pravastatin vs placebo
  reduction of relative risk of recurrent MI: 37%
noncarriers, pravastatin vs placebo, insignificant
  risk reduction (coronary events): 20%
Pravastatin vs placebo, hCV3054808 genotype AA
  OR, Effect of Pravastatin on MI and CHD: 1.04
Pravastatin vs placebo, hCV3054808 genotype AC
  OR, Effect of Pravastatin on MI and CHD: 0.50
Pravastatin vs placebo, hCV3054808 genotype CC
  OR, Effect of Pravastatin on MI and CHD: 1.01
Pravastatin vs placebo, hCV3054813 genotype CC
  OR, Effect of Pravastatin on MI and CHD: 0.98
Pravastatin vs placebo, hCV3054813 genotype CT
  OR, Effect of Pravastatin on MI and CHD: 0.45
Pravastatin vs placebo, hCV3054813 genotype TT
  OR, Effect of Pravastatin on MI and CHD: 1.06
Pravastatin vs placebo, hCV29992177 genotype AA
  OR, Effect of Pravastatin on MI and CHD: 0.71
Pravastatin vs placebo, hCV29992177 genotype GA
  OR, Effect of Pravastatin on MI and CHD: 0.57
Pravastatin vs placebo, hCV29992177 genotype GG
  OR, Effect of Pravastatin on MI and CHD: 1.88
Pravastatin vs placebo, hCV30225864 genotype CC
  OR, Effect of Pravastatin on MI and CHD: 0.79
Pravastatin vs placebo, hCV30225864 genotype CT
  OR, Effect of Pravastatin on MI and CHD: 0.63
Pravastatin vs placebo, hCV30225864 genotype TT
  OR, Effect of Pravastatin on MI and CHD: 0.73
Pravastatin vs placebo, hCV792699 CC minor homozygotes
  OR for minor hom: 0.8127
Pravastatin vs placebo, hCV792699 CC+CT carriers of minor allele
  OR for carrier (Min + Het): 0.7089
Pravastatin vs placebo, hCV792699 CT heterozygotes
  OR for Het: 0.6534
Pravastatin vs placebo, hCV792699 TT major homozygotes
  OR for major hom: 0.8085
Pravastatin vs placebo, hCV1650850 CC major homozygotes
  OR for major hom: 0.7381
Pravastatin vs placebo, hCV1650850 GC heterozygotes
  OR for Het: 1.7143
Pravastatin vs placebo, hCV1650850 GG+GC carriers of minor allele
  OR for carrier (Min + Het): 1.7143
Pravastatin vs placebo, hCV3054766 AA minor homozygotes
  OR for minor hom: 0.4856
Pravastatin vs placebo, hCV3054766 AA+AC carriers of minor allele
  OR for carrier (Min + Het): 0.6695
Pravastatin vs placebo, hCV3054766 AC heterozygotes
  OR for Het: 0.7705
Pravastatin vs placebo, hCV3054766 CC major homozygotes
  OR for major hom: 0.9847
Pravastatin vs placebo, hCV3054789 AA minor homozygotes
  OR for minor hom: 1.0873
Pravastatin vs placebo, hCV3054789 AA+AT carriers of minor allele
  OR for carrier (Min + Het): 0.8227
Pravastatin vs placebo, hCV3054789 AT heterozygotes
  OR for Het: 0.7597
Pravastatin vs placebo, hCV3054789 TT major homozygotes
  OR for major hom: 0.6567
Pravastatin vs placebo, hCV3054799 AA major homozygotes
  OR for major hom: 0.8639
Pravastatin vs placebo, hCV3054799 GA heterozygotes
  OR for Het: 0.5818
Pravastatin vs placebo, hCV3054799 GG minor homozygotes
  OR for minor hom: 0.9215
Pravastatin vs placebo, hCV3054799 GG+GA carriers of minor allele
  OR for carrier (Min + Het): 0.6442
Pravastatin vs placebo, hCV3054805 CC major homozygotes
  OR for major hom: 0.9323
Pravastatin vs placebo, hCV3054805 GC heterozygotes
  OR for Het: 0.5933
Pravastatin vs placebo, hCV3054805 GG minor homozygotes
  OR for minor hom: 0.9317
Pravastatin vs placebo, hCV3054805 GG+GC carriers of minor allele
  OR for carrier (Min + Het): 0.6653
Pravastatin vs placebo, hCV3054808 AA minor homozygotes
  OR for minor hom: 1.037
Pravastatin vs placebo, hCV3054808 AA+AC carriers of minor allele
  OR for carrier (Min + Het): 0.6257
Pravastatin vs placebo, hCV3054808 AC heterozygotes
  OR for Het: 0.5292
Pravastatin vs placebo, hCV3054808 CC major homozygotes
  OR for major hom: 1.0056
Pravastatin vs placebo, hCV3054822 AA minor homozygotes
  OR for minor hom: 0.852
Pravastatin vs placebo, hCV3054822 AA+AT carriers of minor allele
  OR for carrier (Min + Het): 0.5778
Pravastatin vs placebo, hCV3054822 AT heterozygotes
  OR for Het: 0.5213
Pravastatin vs placebo, hCV3054822 TT major homozygotes
  OR for major hom: 0.9897
Pravastatin vs placebo, hCV3054829 CC minor homozygotes
  OR for minor hom: 0.9021
Pravastatin vs placebo, hCV3054829 CC+CT carriers of minor allele
  OR for carrier (Min + Het): 0.8052
Pravastatin vs placebo, hCV3054829 CT heterozygotes
  OR for Het: 0.783
Pravastatin vs placebo, hCV3054829 TT major homozygotes
  OR for major hom: 0.6064
Pravastatin vs placebo, hCV15876373 CC+CT carriers of minor allele
  OR for carrier (Min + Het): 0.9708
Pravastatin vs placebo, hCV15876373 CT heterozygotes
  OR for Het: 0.8241
Pravastatin vs placebo, hCV15876373 TT major homozygotes
  OR for major hom: 0.6881
Pravastatin vs placebo, hCV29649182 CC major homozygotes
  OR for major hom: 0.7223
Pravastatin vs placebo, hCV29649182 TC heterozygotes
  OR for Het: 0.7631
Pravastatin vs placebo, hCV29649182 TT minor homozygotes
  OR for minor hom: 1.7333
Pravastatin vs placebo, hCV29649182 TT+TC carriers of minor allele
  OR for carrier (Min + Het): 0.7818
Pravastatin vs placebo, hCV30388472 CC minor homozygotes
  OR for minor hom: 0.5175
Pravastatin vs placebo, hCV30388472 CC+CT carriers of minor allele
  OR for carrier (Min + Het): 0.6291
Pravastatin vs placebo, hCV30388472 CT heterozygotes
  OR for Het: 0.6798
Pravastatin vs placebo, hCV30388472 TT major homozygotes
  OR for major hom: 1.0182
Pravastatin vs placebo, hCV30478067 AA+AG carriers of minor allele
  OR for carrier (Min + Het): 0.6875
Pravastatin vs placebo, hCV30478067 AG heterozygotes
  OR for Het: 0.5153
Pravastatin vs placebo, hCV30478067 GG major homozygotes
  OR for major hom: 0.7461
Pravastatin vs placebo, hCV31340487 CC+CT carriers of minor allele
  OR for carrier (Min + Het): 1.1573
Pravastatin vs placebo, hCV31340487 CT heterozygotes
  OR for Het: 1.0761
Pravastatin vs placebo, hCV31340487 TT major homozygotes
  OR for major hom: 0.697
Pravastatin vs placebo, hCV32202303 CC+CG carriers of minor allele
  OR for carrier (Min + Het): 0.5857
Pravastatin vs placebo, hCV32202303 CG heterozygotes
  OR for Het: 0.6208
Pravastatin vs placebo, hCV32202303 GG major homozygotes
  OR for major hom: 0.7655
Whole pravastatin-treated group, 5 years of follow-up
  patients who had experienced another MI: 114 patients
